Assay results as given in patent US11530237B2, “Compositions and methods for treating CNS disorders” (Sage Therapeutics, Inc., priority 2014, dated 2022).

These compounds were tested against [35S]-TBPS binding, rat brain cortical membranes (assay: Steroid inhibition of TBPS binding ([35S]-TBPS radioligand displacement)). Conditions: 3 nM [35S]-TBPS, 5 μM GABA.
Description: TBPS binding assays using rat brain cortical membranes in the presence of 5 μM GABA has been described (Gee et al, J. Pharmacol. Exp. Then 1987, 241, 346-353; Hawkinson et al, Mol. Pharmacol. 1994, 46, 977-985; Lewin, A. H et al., Mol. Pharmacol. 1989, 35, 189-194).
Briefly, cortices are rapidly removed following decapitation of carbon dioxide-anesthetized Sprague-Dawley rats (200-250 g). The cortices are homogenized in 10 volumes of […] using a glass/teflon homogenizer and centrifuged at 1500×g for 10 min at 4° C. The resultant supernatants are centrifuged at 10,000×g for 20 min at 4° C. to obtain the P2 pellets. The P2 pellets are resuspended in 200 mM NaCl/50 mM Na—K phosphate pH 7.4 buffer and centrifuged at 10,000×g for 10 min at 4° C. This washing procedure is repeated twice and the pellets are resuspended in 10 volumes of buffer. Aliquots (100 μL) of the membrane suspensions are incubated with 3 nM [^35S]-TBPS and 5 μL aliquots of test drug dissolved in dimethyl sulfoxide (DMSO) (final 0.5%) in the presence of 5 μM GABA. The incubation is brought to a final volume of 1.0 mL with buffer. […] Following a 90 min incubation at room temp, the assays are terminated by filtration through glass fiber filters (Schleicher and Schuell No. 32) using a cell harvester (Braudel) and rinsed three times with ice-cold buffer. Filter bound radioactivity is measured by liquid scintillation spectrometry. Non-linear curve fitting of the overall data for each drug averaged for each concentration is done using Prism (GraphPad).
Various compounds are or can be screened to determine their potential as modulators of [^35S]-TBPS binding in vitro. These assays are or can be performed in accordance with the above discussed procedures.
`CC(C(=O)[C@H]1CC[C@H]2[C@@H]3CC[C@@H]4C[C@](C)(O)CC[C@]4(C)[C@H]3CC[C@]12C)n1nccn1` (stereo in doubt) [Compound 56, (R)-1-((3R,5R,8R,9S,10S,13S,14S,17S)-3-hydroxyl-3,10,13-trimethylhexadecahydro-1H-cyclopenta[a]phenanthren-17-yl)-2-(2H-1,2,3-triazol-2-yl)propan-1-one] gave an IC50 of 0.05 to 0.1 µM.

Each compound was assayed against α1β2γ2 GABAA receptors (Homo sapiens (Human), UniProt P14867+P47870) (assay: Patch clamp electrophysiology (QPatch) of recombinant α1β2γ2 GABAA receptors in LTK cells). Conditions: 10 μM test article, GABA EC20 = 2 μM, read-out: GABA (α1β2γ2) Qpatch in Ltk, % efficacy at 10 μM.
Assay type: cell-based
Description: Cellular electrophysiology is used to measure the pharmacological properties of our GABAA receptor modulators in heterologous cell systems. Each compound is tested for its ability to affect GABA mediated currents at a suhmaximal agonist dose (GABA EC20=2 μM). LTK cells are stably transfected with the α1β2γ2 subunits of the GABA receptor and CHO cells are transiently transfected with the α4β3δ subunits via the Lipofecatamine method. Cells were passaged at a confluence of about 50-80% and then seeded onto 35 mm sterile culture dishes containing 2 ml culture complete medium without antibiotics or antimycotics. Confluent clusters of cells are electrically coupled (Pritchett et al., Science, 1988, 242, 1306-1308). Because responses in distant cells are not adequately voltage clamped and because of uncertainties about the extent of coupling (Verdoom et al., Neuron 1990, 4, 919-928), cells were cultivated at a density that enables the recording of single cells (without visible connections to other cells).
Whole cell currents were measured with HEKA EPC-10 amplifiers using PatchMaster software or by using the high throughput QPatch platform (Sophion). Bath solution for all experiments contained (in mM): NaCl 137 mM, KCl 4 mM, CaCl2 1.8 mM, MgCl2 1 mM, HEPES 10 mM, D-Glucose 10 mM, pH (NaOH) 7.4. In some cases 0.005% cremophor was also added. Intracellular (pipette) solution contained: KCl 130 mM, MgCl2 1 mM, Mg-ATP 5 mM, HEPES 10 mM, EGTA 5 mM, pH 7.2. During experiments, cells and solutions were maintained at room temperature (19° C.-30° C.). For manual patch clamp recordings, cell culture dishes were placed on the dish holder of the microscope and continuously perfused (1 ml/min) with bath solution. After formation of a Gigaohm seal between the patch electrodes and the cell (-ipette resistance range: 2.5 MΩ-6.0 MΩ; seal resistance range:>1 GΩ) the cell membrane across the pipette tip was ruptured to assure electrical access to the cell interior (whole-cell patch-configuration). For experiments using the QPatch system, cells were transferred as suspension to the QPatch system in the bath solution and automated whole cell recordings were performed.
Cells were voltage clamped at a holding potential of −80 mV. For the analysis of test articles, GABA receptors were stimulated by 2 μM GABA after sequential pre-incubation of increasing concentrations of the test article. Pre-incubation duration was 30 s and the duration of the GABA stimulus was 2s. Test articles were dissolved in DMSO to form stock solutions (10 mM). Test articles were diluted to 0.01, 0.1, 1, and 10 μM in bath solution. All concentrations of test articles were tested on each cell. The relative percentage potentiation was defined as the peak amplitude in response to GABA EC20 in the presence of the test article divided by the peak amplitude in response to GABA EC20 alone, multiplied by 100. For Table 2. GABAA receptors α1β2γ2 and α4β3δ% efficacy: “A” 10-100, “B”>100-500, “C”>500; D indicates the data is not available or has not been determined.
For `CO[C@H]1C[C@@]2(C)[C@@H](CC[C@@H]3[C@@H]2CC[C@]2(C)[C@@H](C(=O)CN4CCOCC4)CC[C@@H]32)C[C@@H]1O` [Compound 1], the Emax at 10 µM was 100 to 500%.
In the case of `CO[C@H]1C[C@@]2(C)[C@@H](CC[C@@H]3[C@@H]2CC[C@]2(C)[C@@H](C(=O)Cn4ccnn4)CC[C@@H]32)C[C@@H]1O` [Compound 3], the Emax at 10 µM is reported as 100 to 500%.
`CO[C@H]1C[C@@]2(C)[C@@H](CC[C@@H]3[C@@H]2CC[C@]2(C)[C@@H](C(=O)Cn4nccn4)CC[C@@H]32)C[C@]1(C)O` [Compound 42] showed an Emax at 10 µM of 100 to 500%.
For `C[C@@]1(O)CC[C@@]2(C)[C@@H](CC[C@@H]3[C@@H]2CC[C@]2(C)[C@@H](C(=O)Cn4nc5ccc(Cl)c(F)c5n4)CC[C@@H]32)C1` [Compound 112], the Emax at 10 µM was 100 to 500%.
With `COc1ccc2nn(CC(=O)[C@H]3CC[C@H]4[C@@H]5CC[C@H]6C[C@](C)(O)CC[C@]6(C)[C@H]5CC[C@]34C)nc2c1` [Compound 125] the Emax at 10 µM was 100 to 500%.
Compound `COc1ccc2nnn(CC(=O)[C@H]3CC[C@H]4[C@@H]5CC[C@H]6C[C@](C)(O)CC[C@]6(C)[C@H]5CC[C@]34C)c2c1` [Compound 126] has an Emax at 10 µM of 100 to 500%.
`COc1ccc2c(c1)nnn2CC(=O)[C@H]1CC[C@H]2[C@@H]3CC[C@H]4C[C@](C)(O)CC[C@]4(C)[C@H]3CC[C@]12C` [Compound 127] was tested, and the Emax at 10 µM was 100 to 500%.
With `C[C@@]1(O)CC[C@@]2(C)[C@@H](CC[C@@H]3[C@@H]2CC[C@]2(C)[C@@H](C(=O)Cn4nc5cccc(F)c5n4)CC[C@@H]32)C1` [Compound 128] the Emax at 10 µM was 100 to 500%.
`C[C@@]1(O)CC[C@@]2(C)[C@@H](CC[C@@H]3[C@@H]2CC[C@]2(C)[C@@H](C(=O)Cn4ccnc4C#N)CC[C@@H]32)C1` [Compound 129] gave an Emax at 10 µM of 100 to 500%.
For `Cc1cnn(CC(=O)[C@H]2CC[C@H]3[C@@H]4CC[C@H]5C[C@](C)(O)CC[C@]5(C)[C@H]4CC[C@]23C)c1` [Compound 130], the Emax at 10 µM was 100 to 500%.
`C[C@@]1(O)CC[C@@]2(C)[C@@H](CC[C@@H]3[C@@H]2CC[C@]2(C)[C@@H](C(=O)Cn4cc(C(F)(F)F)cn4)CC[C@@H]32)C1` [Compound 131] showed an Emax at 10 µM of 100 to 500%.
`Cc1cn(CC(=O)[C@H]2CC[C@H]3[C@@H]4CC[C@H]5C[C@](C)(O)CC[C@]5(C)[C@H]4CC[C@]23C)cn1` [Compound 135] was tested, and the Emax at 10 µM was 100 to 500%.
`Cc1cncn1CC(=O)[C@H]1CC[C@H]2[C@@H]3CC[C@H]4C[C@](C)(O)CC[C@]4(C)[C@H]3CC[C@]12C` [Compound 136] was tested, and the Emax at 10 µM was 100 to 500%.
Work on `C[C@@]1(O)CC[C@@]2(C)[C@@H](CC[C@@H]3[C@@H]2CC[C@]2(C)[C@@H](C(=O)Cn4cc(Cl)cn4)CC[C@@H]32)C1` [Compound 137] yielded an Emax at 10 µM of 100 to 500%.
`COC[C@@]1(O)CC[C@@]2(C)[C@@H](CC[C@@H]3[C@@H]2CC[C@]2(C)[C@@H](C(=O)Cn4cc(C(F)(F)F)cn4)CC[C@@H]32)C1` [Compound 140] was tested, and the Emax at 10 µM was 100 to 500%.
With `COC[C@@]1(O)CC[C@@]2(C)[C@@H](CC[C@@H]3[C@@H]2CC[C@]2(C)[C@@H](C(=O)Cn4ccnc4)CC[C@@H]32)C1` [Compound 141] the Emax at 10 µM was > 500%.
`CCOc1cnn(CC(=O)[C@H]2CC[C@H]3[C@@H]4CC[C@@H]5C[C@](C)(O)CC[C@]5(C)[C@H]4CC[C@]23C)c1` [Compound 145] was tested, and the Emax at 10 µM was > 500%.
For `Cc1cnn(CC(=O)[C@H]2CC[C@H]3[C@@H]4CC[C@@H]5C[C@](C)(O)CC[C@]5(C)[C@H]4CC[C@]23C)c1` [Compound 147], the Emax at 10 µM was > 500%.
`COc1cnn(CC(=O)[C@H]2CC[C@H]3[C@@H]4CC[C@H]5C[C@](C)(O)CC[C@]5(C)[C@H]4CC[C@]23C)c1` [Compound 148] showed an Emax at 10 µM of 100 to 500%.
In the case of `C[C@@]1(O)CC[C@@]2(C)[C@@H](CC[C@@H]3[C@@H]2CC[C@]2(C)[C@@H](C(=O)Cn4cnc(C#N)c4)CC[C@@H]32)C1` [Compound 154], the Emax at 10 µM is reported as 100 to 500%.
`COC[C@@]1(O)CC[C@@]2(C)[C@@H](CC[C@@H]3[C@@H]2CC[C@]2(C)[C@@H](C(=O)Cn4cc(OC)cn4)CC[C@@H]32)C1` [Compound 158] was tested, and the Emax at 10 µM was 100 to 500%.
In the case of `CCOc1cnn(CC(=O)[C@H]2CC[C@H]3[C@@H]4CC[C@H]5C[C@@](O)(COC)CC[C@]5(C)[C@H]4CC[C@]23C)c1` [Compound 159], the Emax at 10 µM is reported as > 500%.
Work on `CNC(=O)c1cnn(CC(=O)[C@H]2CC[C@H]3[C@@H]4CC[C@H]5C[C@@](O)(COC)CC[C@]5(C)[C@H]4CC[C@]23C)c1` [Compound 161] yielded an Emax at 10 µM of 10 to 100%.
In the case of `COC[C@@]1(O)CC[C@@]2(C)[C@@H](CC[C@@H]3[C@@H]2CC[C@]2(C)[C@@H](C(=O)Cn4nc5ccc(Cl)cc5n4)CC[C@@H]32)C1` [Compound 165], the Emax at 10 µM is reported as 100 to 500%.
`COc1cnn(CC(=O)[C@H]2CC[C@H]3[C@@H]4CC[C@@H]5C[C@](C)(O)CC[C@]5(C)[C@H]4CC[C@]23C)c1` [Compound 166] showed an Emax at 10 µM of 100 to 500%.
`C[C@@]1(O)CC[C@@]2(C)[C@H](CC[C@@H]3[C@@H]2CC[C@]2(C)[C@@H](C(=O)Cn4cc(C(N)=O)cn4)CC[C@@H]32)C1` [Compound 167] gave an Emax at 10 µM of 100 to 500%.
`CNC(=O)c1cnn(CC(=O)[C@H]2CC[C@H]3[C@@H]4CC[C@@H]5C[C@](C)(O)CC[C@]5(C)[C@H]4CC[C@]23C)c1` [Compound 168] showed an Emax at 10 µM of 100 to 500%.
In the case of `CN(C)C(=O)c1cnn(CC(=O)[C@H]2CC[C@H]3[C@@H]4CC[C@@H]5C[C@](C)(O)CC[C@]5(C)[C@H]4CC[C@]23C)c1` [Compound 169], the Emax at 10 µM is reported as 100 to 500%.
For `CC(=O)Nc1cnn(CC(=O)[C@H]2CC[C@H]3[C@@H]4CC[C@@H]5C[C@](C)(O)CC[C@]5(C)[C@H]4CC[C@]23C)c1` [Compound 171], the Emax at 10 µM was 100 to 500%.
Work on `Cc1cn(CC(=O)[C@H]2CC[C@H]3[C@@H]4CC[C@@H]5C[C@](C)(O)CC[C@]5(C)[C@H]4CC[C@]23C)cn1` [Compound 172] yielded an Emax at 10 µM of 100 to 500%.
For `CC(C)Oc1cnn(CC(=O)[C@H]2CC[C@H]3[C@@H]4CC[C@@H]5C[C@](C)(O)CC[C@]5(C)[C@H]4CC[C@]23C)c1` [Compound 173], the Emax at 10 µM was 100 to 500%.
In the case of `Cc1nccn1CC(=O)[C@H]1CC[C@H]2[C@@H]3CC[C@@H]4C[C@](C)(O)CC[C@]4(C)[C@H]3CC[C@]12C` [Compound 174], the Emax at 10 µM is reported as 100 to 500%.
With `COC[C@@]1(O)CC[C@@]2(C)[C@@H](CC[C@@H]3[C@@H]2CC[C@]2(C)[C@@H](C(=O)Cn4cnc(C#N)c4)CC[C@@H]32)C1` [Compound 178] the Emax at 10 µM was > 500%.
`C[C@@]1(O)CC[C@@]2(C)[C@@H](CC[C@H]3[C@@H]4CC[C@H](C(=O)Cn5cc(C#N)cn5)[C@@]4(C)CC(=O)[C@@H]32)C1` [Compound 196] gave an Emax at 10 µM of 100 to 500%.
